pEC50: −log10 of the molar value.

The target in series [1] is T1, STAT3 (Homo sapiens, UniProt P40763). Description: Western Blot of STAT3 phosphorylation in KARPAS cells. It is filed as cell-based. Also on record: The cell line DU145 expresses pStat3 in a constitutive manner; endogenous in cells; host or cells: DU-145 (human prostate carcinoma, ATCC HTB-81). Conditions: read-out: EC50 inhibition of the phosphorylation of STAT3. How it is done:
(§1) The cells were lysed in ice for 30 min in lysis buffer NP40 (50 mM Tris-HCl pH 7.4, 150 mM NaCl, 1% NP-40, 1 mM EGTA, 1 mM EDTA) complemented with inhibitors of protease and phosphatase (5 mM PMSF, 3 mM NaF, 1 mM DTT, 1 mM NaVO4). Equal amounts of total extracts of protein (30 μg) were broken down by means of denaturing electrophoresis (SDS-PAGE) in 8% polyacrylamide gel and transferred for 2 hours on nitrocellulose membrane. The membranes were blocked with a 5% solution of milk dissolved in TBS-Tween_20 0.05% for 1 hour and incubated with the specific primary antibodies. The following primary antibodies were used: anti-beta actin (A-2228, SIGMA), anti-pSTAT3 (Tyr-705) (sc8059, Santa Cruz) and anti-STAT3 (sc7179, Santa Cruz). The secondary antibodies were peroxidase-conjugated (Santa Cruz), and ECL reagents (Amersham, GE Healthcare. Piscataway, N.J., USA) were used for the chemiluminescence.
(§2) 2. The Extract of Cynara scolymus and Cynaropicrin Inhibit the Activation of STAT3 in DU-145 Cells and in KARPAS Cells:
(§3) 200 μg/ml of extract that contains 0.181% of cynaropricrin contain 1.2 μM of cynaropricrin.
Background: A western blot detects proteins with antibodies after separation by electrophoresis.

Series [2] concerns the target T1, STAT3. Description: EMSA of STAT3 binding to DNA in KARPAS cells. Also on record: endogenous in cells. The note with it: read-out: EC50 inhibition of the ability of STAT3 to bind to DNA. The class given is cell-based.
The subject of series [3] is STAT3. Put plainly: STAT3 phosphorylation after pre-treatment with glutathione ethylene ester. The class given is cell-based.
A further series has as its system GSH. Put plainly: Intracellular analyses of GSH. It is filed as cell-based. Conditions: 12.5, 25, 50 μM. As for the experimental part: The intracellular concentration of GSH was evaluated by means of a colorimetric method. The cell extract, deproteinised by means of 10% trichloroacetic acid, was treated with dithio nitrobenzene (DTNB), and the quantity of TNB, which is released following the reaction with GSH, was evaluated by analysing the absorbance at 412 nm.

The target in series [4] is T1, STAT3. Put plainly: EMSA of STAT3 binding to DNA in DU-145 cells. The class given is cell-based. The note with it: read-out: EC50 inhibition of the ability of STAT3 to bind to DNA. Also on record: The cell line DU145 expresses pStat3 in a constitutive manner; endogenous in cells; host or cells: DU-145 (human prostate carcinoma, ATCC HTB-81).
Series [5] has as its system human prostate tumour cell line DU145. Put plainly: WST-1 vitality assay in association with chemotherapeutic agents. The class given is cell-based. As for the experimental part: (§4) Cytotoxicity was assayed using the WST assay (WSTs=water soluble tetrazolium salts), and utilises the ability of mitochondrial dehydrogenases to separate the tetrazole ring from the yellow-coloured WST molecule (tetrazolium salt) to give an orange formazan salt. The amount of formazan produced following the treatment of the cells with the substances being tested is measured using spectrophotometry and is proportional to the number of living cells. WST-1 and in particular WST-8 (2-(2-methoxy-4-nitrophenyl)-3-(4-nitrophenyl)-5-(2,4-disulfophenyl)-2H-tetrazolium) are advantageous with respect to MTT because they reduce outside the cells, in combination with PMS as electron mediator, to produce water-soluble formazan.
The assays were carried out in parallel with variable doses of cynaropicrin in place of the extract to compare the efficacy of the extract and that of cynaropicrin.

Series [6] deals with T1, STAT3. Description: Western Blot of STAT3 phosphorylation in DU-145 cells. The class given is cell-based. The note with it: read-out: EC50 inhibition of the phosphorylation of STAT3. Also on record: The cell line DU145 expresses pStat3 in a constitutive manner; endogenous in cells; host or cells: DU-145 (human prostate carcinoma, ATCC HTB-81). As for the experimental part: as §1, §2, §3

Series [7] concerns STAT3. Description: Glutathionylation of STAT3. The note with it: 12 microM and 25 μM. The class given is cell-based. How it is done:
STAT3 was immunoprecipitated by incubating the protein cell extract overnight with an anti-STAT3 antibody. The proteins obtained were separated by means of SDS-PAGE in non-reducing conditions and were transferred on PVDF membrane. The glutathionylated STAT3 was recognised using an anti-GSH antibody.

The test system of series [8] is confluent prostatic adenocarcinoma cell line DU-145. Description: WST-1 cell vitality assay, confluent DU-145. It is filed as cell-based, human. How it is done:
as §4
6.2 WST-1 assay on cell line DU145 at 24 and 48 hours with 0-100-200-300-400-500-600 μg/ml of extract of Cynara scolymus (cynaropicrin=1.361%), which inhibits, in a time-dependent and dose-dependent manner, the vitality of the DU-145 cells.
6.3 WST-1 assay on cell line DU145 at 24 and 48 hours with cynaropicrin 0-10-20-30-40-50-60 μM inhibits, in a dose-dependent and time-dependent manner, the vitality of DU-145 cells.
(Tetrazolium assays rely on reduction of a dye to a coloured formazan, in cell work by metabolically active cells.)

A further series relates to MSTO211H and NCI-H2052. Description: ATPlite vitality assay, extract in association with pemetrexed, MPM lines. The class given is cell-based, human. Conditions: MPM cells, 72 h. As for the experimental part: Cell lines MSTO211H and NCI-H2052 were used to evaluate the effects of the association of extract of Cynara scolymus+anti-tumour drug.
(§5) The assay shown in FIG. 10 was performed using ATPlite™ assay (Perkin Elmer) in accordance with the producer's instructions.
(§6) A solution of water for injectable solutions and ethanol at a concentration of 1:1 was used in the same volumes used for the treatments.
(§7) pemetrexed (Alimta, Lilly) diluted in accordance with the producer's instructions.
(§8) The concentrations of the assayed compound are plotted on the abscissa, whereas the cell vitality expressed in percentage is plotted on the ordinate.

The test system of the next series is untransformed HMC cells. Put plainly: ATPlite vitality assay, extract in association with pemetrexed, HMC. The class given is cell-based, human. Conditions: non-tumour HMC cells. As for the experimental part:
as §5, §6, §7, §8
Background: ATP-based viability assays read luminescence as a measure of living cells.

T1 sequence (P40763 whole entry): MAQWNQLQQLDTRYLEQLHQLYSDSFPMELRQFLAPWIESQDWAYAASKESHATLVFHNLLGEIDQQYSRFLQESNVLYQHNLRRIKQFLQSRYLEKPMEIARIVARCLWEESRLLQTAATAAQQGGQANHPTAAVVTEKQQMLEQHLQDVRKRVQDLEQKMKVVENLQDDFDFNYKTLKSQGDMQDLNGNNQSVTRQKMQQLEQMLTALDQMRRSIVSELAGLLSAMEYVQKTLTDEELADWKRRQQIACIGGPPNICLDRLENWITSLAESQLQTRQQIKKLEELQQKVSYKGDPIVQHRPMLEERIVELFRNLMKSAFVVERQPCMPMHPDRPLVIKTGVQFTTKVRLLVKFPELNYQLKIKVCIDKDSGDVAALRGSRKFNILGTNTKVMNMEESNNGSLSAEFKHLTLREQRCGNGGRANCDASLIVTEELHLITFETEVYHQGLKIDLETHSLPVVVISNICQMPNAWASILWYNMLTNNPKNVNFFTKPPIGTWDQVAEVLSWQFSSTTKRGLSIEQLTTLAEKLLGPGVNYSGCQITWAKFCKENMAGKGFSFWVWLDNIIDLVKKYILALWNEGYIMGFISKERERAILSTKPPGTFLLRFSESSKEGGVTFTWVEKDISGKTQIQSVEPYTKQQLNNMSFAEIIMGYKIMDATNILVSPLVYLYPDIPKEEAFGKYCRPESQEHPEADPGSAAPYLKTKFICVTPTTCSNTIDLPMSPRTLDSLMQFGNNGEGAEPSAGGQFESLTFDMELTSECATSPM

By pEC50 is commonly meant −log10 of the EC50, conventionally taken in molar units. On to `C=C(CO)C(=O)O[C@H]1CC(=C)[C@@H]2C[C@H](O)C(=C)[C@@H]2[C@H]2OC(=O)C(=C)[C@@H]21` [cynaropicrin], for which the negative-log EC50 (pEC50) at STAT3 [1], on STAT3 [2], at STAT3 [4] and at STAT3 [6] was 4.60 in each case. In the series on STAT3 [3], the “effect of restoration of GSH on inhibition of STAT3 phosphorylation” value is “reverses the ability of cynaropicrin to inhibit the phosphorylation of STAT3”. The “intracellular concentration of GSH” value in the series with GSH was “time-dependent and dose-dependent reduction of the intracellular concentration of GSH”. Further, the “molarity of cynaropicrin needed to reduce cell vitality below 20%, relative to that present in the artichoke extract” value was “forty times greater” in [5] (DU145, with cisplatinum 15 μg/ml) and “approximately twenty-five times greater” in [5] (DU145, with doxorubicin 2 μg/ml). For the same molecule, the “glutathionylation of STAT3” value in the series with STAT3 [7] is “determines the glutathionylation of STAT3”. In addition, the reduction of vitality result in series [8] (confluent DU-145, 50 μM for 48 hours) was “approximately 90%”. In addition, the cell vitality entry in series [8] (confluent DU-145, cynaropicrin 0-70 μM, 24 or 48 hours) is “inhibits cell vitality in a time-dependent and dose-dependent manner”.
For the molecule `Nc1nc2[nH]cc(CCc3ccc(C(=O)N[C@@H](CCC(=O)O)C(=O)O)cc3)c2c(=O)[nH]1` [PMTX, pemetrexed], the “cell vitality, pemetrexed alone” value in the series on MSTO211H and NCI-H2052 is on record as “cytotoxic for the MPM cells”; in the series with untransformed HMC cells it was “highly toxic for the non-tumour cells”.

Source of the values: patent US10383905B2, “Extract of Cynara ssp. and uses thereof” (ABOCA S.P.A. SOCIETA' AGRICOLA, priority 2013, dated 2019).
